Results as given in patent publication US20060029743A1, “Wood preservatives and methods of wood preservation” (priority 2004, published 2006).
Values after ≈ are worked out from the molar mass of the structure shown. Where two headings read alike, the source gives them in different places.

What was measured:
Assay in all cases: 6-well plate assay, minimal inhibitory concentration
Assay type in all cases: cell-based
Postia placenta = conditions: for MIC: Rhodonia placenta, 168 h, read-out: Effectiveness at Inhibiting Wood-Rotting Fungi, BR1 (minimal inhibitory concentration)
Description: (§1) The minimal inhibitory concentration of fungicides against eight fungi was determined in 6-well microtiter plates. Minimal inhibitory concentration is defined as the lowest concentration at which no fungus growth is evident after seven days. A group of eight fungi were used in a screen to identify potential active ingredients to preserve wood. The eight fungi, their classification, and the growth media used to culture them are listed below:
(§2) Growth media were purchased from Difco (from Beckton Dickinson and Co., Sparks, Md.). The growth media were added to water to 2% w/v and autoclaved at 121° C. for 30 min. Autoclaved media were allowed to cool down to ˜50° C. Test chemicals were dissolved in DMSO (dimethyl sulfoxide) individually at 10 mg/mL to generate stock solutions. An appropriate amount of a stock solution was then added to the appropriate growth medium at 50° C. to make up the test media containing various concentrations of individual test chemicals. 10 mL of the medium was added to each well of a 6-well plate and allowed to solidify at room temperature. For each plate, the first well had no chemical, and the remaining five wells contained a particular test chemical at five different concentrations. Eight such plates were prepared for each chemical, using the eight media listed above for the eight test organisms.
(§3) After the media solidified and cooled, a plug (˜2 mm×2 mm) of agar growth medium with fresh grown mycelium from the appropriate fungal culture was used to inoculate each well. The plate was placed in an incubator, and the growth of the fungus monitored. After 4 to 7 days, the growth was scored manually.

Gloeophyllum trabeum = conditions: for MIC: Gloeophyllum trabeum, 168 h, read-out: Effectiveness at Inhibiting Wood-Rotting Fungi, BR2 (minimal inhibitory concentration)
Description: as §1, §2, §3

Trametes versicolor = conditions: for MIC: Trametes versicolor, 168 h, read-out: Effectiveness at Inhibiting Wood-Rotting Fungi, WR1 (minimal inhibitory concentration)
Description: as §1, §2, §3

[1] = tested on: Phanerochaete chrysosporium; conditions: for MIC: Phanerodontia chrysosporium, 168 h, read-out: Effectiveness at Inhibiting Wood-Rotting Fungi, WR3 (minimal inhibitory concentration)
Description: as §1, §2, §3

Chaetomium globosum = conditions: for MIC: Chaetomium globosum, 168 h, read-out: Effectiveness at Inhibiting Wood-Rotting Fungi, SR1 (minimal inhibitory concentration)
Description: as §1, §2, §3

Irpex lacteus = conditions: for MIC: Irpex lacteus, 168 h, read-out: Effectiveness at Inhibiting Wood-Rotting Fungi, WR2 (minimal inhibitory concentration)
Description: as §1, §2, §3

Antrodia vaillantii = conditions: for MIC: Fibroporia vaillantii, 168 h, read-out: Effectiveness at Inhibiting Wood-Rotting Fungi, BR3 (minimal inhibitory concentration)
Description: as §1, §2, §3

[2] = 6-well agar plate, lowest concentration with no growth after seven days

Row | SMILES | MIC (Postia placenta; [2]) [µg/mL] | MIC (Gloeophyllum trabeum; [2]) [µg/mL] | MIC (Trametes versicolor; [2]) [µg/mL] | MIC [1, 2] [µg/mL] | MIC (Chaetomium globosum; [2]) [µg/mL] | MIC (Irpex lacteus; [2]) [µg/mL] | MIC (Antrodia vaillantii; [2]) [µg/mL] | other results
1 | Nc1nc(=O)[nH]cc1F [5-Fluorocytosine] | < 1 | > 100 | 1 to 100 (≈ 7.75 to 775 µM) | > 100 | > 100 | > 100 | 1 to 100 (≈ 7.75 to 775 µM) | –
2 | Oc1cccc2cccnc12 [8-Hydroxyquinoline] | – | – | – | – | – | – | – | MIC (Postia placenta): 1 to 100 µg/mL (≈ 6.89 to 689 µM); MIC (Gloeophyllum trabeum): > 100 µg/mL; MIC (Trametes versicolor): 1 to 100 µg/mL (≈ 6.89 to 689 µM); MIC [1]: > 100 µg/mL; MIC (Chaetomium globosum): > 100 µg/mL; MIC (Irpex lacteus): 1 to 100 µg/mL (≈ 6.89 to 689 µM); MIC (Antrodia vaillantii): < 1 µg/mL
3 | CO/C=C(\C(=O)OC)c1ccccc1Oc1cc(Oc2ccccc2C#N)ncn1 [Axoxystrobin] | – | – | – | – | – | – | – | Effectiveness at Inhibiting Wood-Rotting Fungi, BR1 (minimal inhibitory concentration) (Postia placenta; [2]): 1 (“1” indicates effective inhibition at 1 ppm or less); Effectiveness at Inhibiting Wood-Rotting Fungi, BR2 (minimal inhibitory concentration) (Gloeophyllum trabeum; [2]): 1 (“1” indicates effective inhibition at 1 ppm or less); Effectiveness at Inhibiting Wood-Rotting Fungi, WR1 (minimal inhibitory concentration) (Trametes versicolor; [2]): 3 (“3” indicates inhibition (if any) only at >100 ppm); Effectiveness at Inhibiting Wood-Rotting Fungi, WR3 (minimal inhibitory concentration) [1, 2]: 3 (“3” indicates inhibition (if any) only at >100 ppm); Effectiveness at Inhibiting Wood-Rotting Fungi, SR1 (minimal inhibitory concentration) (Chaetomium globosum; [2]): 3 (“3” indicates inhibition (if any) only at >100 ppm); Effectiveness at Inhibiting Wood-Rotting Fungi, WR2 (minimal inhibitory concentration) (Irpex lacteus; [2]): 3 (“3” indicates inhibition (if any) only at >100 ppm); Effectiveness at Inhibiting Wood-Rotting Fungi, BR3 (minimal inhibitory concentration) (Antrodia vaillantii; [2]): 1 (“1” indicates effective inhibition at 1 ppm or less)
4 | CC(C)(C)C(O)C(Oc1ccc(Cl)cc1)n1cncn1 (stereo not shown) [Baytan] | – | – | – | – | – | – | – | Effectiveness at Inhibiting Wood-Rotting Fungi, BR1 (minimal inhibitory concentration) (Postia placenta; [2]): 2 (“2” indicates inhibition at about 1-100 ppm); Effectiveness at Inhibiting Wood-Rotting Fungi, BR2 (minimal inhibitory concentration) (Gloeophyllum trabeum; [2]): 1 (“1” indicates effective inhibition at 1 ppm or less); Effectiveness at Inhibiting Wood-Rotting Fungi, WR1 (minimal inhibitory concentration) (Trametes versicolor; [2]): 1 (“1” indicates effective inhibition at 1 ppm or less); Effectiveness at Inhibiting Wood-Rotting Fungi, WR3 (minimal inhibitory concentration) [1, 2]: 1 (“1” indicates effective inhibition at 1 ppm or less); Effectiveness at Inhibiting Wood-Rotting Fungi, SR1 (minimal inhibitory concentration) (Chaetomium globosum; [2]): 3 (“3” indicates inhibition (if any) only at >100 ppm); Effectiveness at Inhibiting Wood-Rotting Fungi, WR2 (minimal inhibitory concentration) (Irpex lacteus; [2]): 1 (“1” indicates effective inhibition at 1 ppm or less); Effectiveness at Inhibiting Wood-Rotting Fungi, BR3 (minimal inhibitory concentration) (Antrodia vaillantii; [2]): 1 (“1” indicates effective inhibition at 1 ppm or less)
5 | CCCCNC(=O)n1c(NC(=O)OC)nc2ccccc21 [Benomyl] | 1 to 100 (≈ 3.44 to 344 µM) | > 100 | > 100 | 1 to 100 (≈ 3.44 to 344 µM) | < 1 | > 100 | 1 to 100 (≈ 3.44 to 344 µM) | –
6 | COC(=O)Nc1nc2ccccc2[nH]1 [Carbendazim] | 1 to 100 (≈ 5.23 to 523 µM) | > 100 | > 100 | 1 to 100 (≈ 5.23 to 523 µM) | < 1 | 1 to 100 (≈ 5.23 to 523 µM) | 1 to 100 (≈ 5.23 to 523 µM) | –
7 | CC1=C(C(=O)Nc2ccccc2)SCCO1 [Carboxin] | – | – | – | – | – | – | – | MIC (Postia placenta): 1 to 100 µg/mL (≈ 4.25 to 425 µM); MIC (Gloeophyllum trabeum): < 1 µg/mL; MIC (Trametes versicolor): < 1 µg/mL; MIC [1]: < 1 µg/mL; MIC (Chaetomium globosum): 1 to 100 µg/mL (≈ 4.25 to 425 µM); MIC (Irpex lacteus): < 1 µg/mL; MIC (Antrodia vaillantii): < 1 µg/mL
8 | CC(Cc1ccc(C(C)(C)C)cc1)CN1C[C@@H](C)O[C@@H](C)C1 (stereo partly shown) [Fenpropimorph] | < 1 | < 1 | 1 to 100 (≈ 3.3 to 330 µM) | 1 to 100 (≈ 3.3 to 330 µM) | > 100 | 1 to 100 (≈ 3.3 to 330 µM) | 1 to 100 (≈ 3.3 to 330 µM) | –
9 | CN(C)C(=S)[S-].CN(C)C(=S)[S-].CN(C)C(=S)[S-].[Fe+3] [Ferbam] | – | – | – | – | – | – | – | Effectiveness at Inhibiting Wood-Rotting Fungi, BR1 (minimal inhibitory concentration) (Postia placenta; [2]): 1 (“1” indicates effective inhibition at 1 ppm or less); Effectiveness at Inhibiting Wood-Rotting Fungi, BR2 (minimal inhibitory concentration) (Gloeophyllum trabeum; [2]): 3 (“3” indicates inhibition (if any) only at >100 ppm); Effectiveness at Inhibiting Wood-Rotting Fungi, WR1 (minimal inhibitory concentration) (Trametes versicolor; [2]): 2 (“2” indicates inhibition at about 1-100 ppm); Effectiveness at Inhibiting Wood-Rotting Fungi, WR3 (minimal inhibitory concentration) [1, 2]: 2 (“2” indicates inhibition at about 1-100 ppm); Effectiveness at Inhibiting Wood-Rotting Fungi, SR1 (minimal inhibitory concentration) (Chaetomium globosum; [2]): 2 (“2” indicates inhibition at about 1-100 ppm); Effectiveness at Inhibiting Wood-Rotting Fungi, WR2 (minimal inhibitory concentration) (Irpex lacteus; [2]): 2 (“2” indicates inhibition at about 1-100 ppm); Effectiveness at Inhibiting Wood-Rotting Fungi, BR3 (minimal inhibitory concentration) (Antrodia vaillantii; [2]): 2 (“2” indicates inhibition at about 1-100 ppm)
10 | O=[N+]([O-])c1cc(C(F)(F)F)c(Cl)c([N+](=O)[O-])c1Nc1ncc(C(F)(F)F)cc1Cl [Fluazinam] | < 1 | < 1 | 1 to 100 (≈ 2.15 to 215 µM) | 1 to 100 (≈ 2.15 to 215 µM) | < 1 | 1 to 100 (≈ 2.15 to 215 µM) | < 1 | –
11 | O=[N+]([O-])c1c(Cl)c(Cl)c(Cl)c(Cl)c1Cl [Pentachloronitrobenzene] | – | – | – | – | – | – | – | MIC (Postia placenta): 1 to 100 µg/mL (≈ 3.39 to 339 µM); MIC (Gloeophyllum trabeum): 1 to 100 µg/mL (≈ 3.39 to 339 µM); MIC (Trametes versicolor): > 100 µg/mL; MIC [1]: > 100 µg/mL; MIC (Chaetomium globosum): < 1 µg/mL; MIC (Irpex lacteus): > 100 µg/mL; MIC (Antrodia vaillantii): > 100 µg/mL
12 | CCCN(CCOc1c(Cl)cc(Cl)cc1Cl)C(=O)n1ccnc1 [Prochloraz] | – | – | – | – | – | – | – | MIC (Postia placenta): > 100 µg/mL; MIC (Gloeophyllum trabeum): > 100 µg/mL; MIC (Trametes versicolor): 1 to 100 µg/mL (≈ 2.65 to 265 µM); MIC [1]: 1 to 100 µg/mL (≈ 2.65 to 265 µM); MIC (Chaetomium globosum): < 1 µg/mL; MIC (Irpex lacteus): 1 to 100 µg/mL (≈ 2.65 to 265 µM); MIC (Antrodia vaillantii): 1 to 100 µg/mL (≈ 2.65 to 265 µM)
13 | CCCC1COC(Cn2cncn2)(c2ccc(Cl)cc2Cl)O1 (stereo not shown) [Propiconazole] | < 1 | < 1 | < 1 | < 1 | < 1 | < 1 | < 1 | –
14 | CC(C)(C)C(O)(CCc1ccc(Cl)cc1)Cn1cncn1 (stereo not shown) [Tebuconazole] | < 1 | < 1 | < 1 | < 1 | 1 to 100 (≈ 3.25 to 325 µM) | < 1 | < 1 | –
15 | c1ccc2[nH]c(-c3cscn3)nc2c1 [Thiabendazole] | > 100 | > 100 | > 100 | > 100 | < 1 | > 100 | > 100 | –
16 | CON=C(C(=O)OC)c1ccccc1CON=C(C)c1cccc(C(F)(F)F)c1 [Trifloxystrobin] | 1 to 100 (≈ 2.45 to 245 µM) | < 1 | > 100 | > 100 | > 100 | > 100 | < 1 | –
